Measurements: US7632816B2, “Treatment of Alzheimer amyloid deposition” (New York University, priority 2003, dated 2009)
“Also recorded” adds a separate entry of the source. Square brackets hold non-standard residues; d marks the D form. Peptide text beside a SMILES is read from it.

Experiments:
[1] = assay type: physicochemical
Description: Circular dichroism (“CD”) was used to study the secondary structure of peptides in solution as described previously (Golabek et al., “The Interaction Between Apolipoprotein E and Alzheimer's Amyloid β-peptide is Dependent on β-peptide Conformation,” J. Biol. Chem. 271:10602-10606 (1996); Soto et al., “Alzheimer's Soluble β-amyloid is Conformationally Modified by Apolipoproteins in vitro,” Neuroreport 7:721-725 (1996); which are hereby incorporated by reference in their entirety). Aliquots of HFIP treated peptides were diluted in 5 mmol/L Tris buffer (pH 7.0) to obtain a peptide concentration of 100 μmol/L, and were incubated at 37° C. CD was measured at indicated intervals with t=0 being immediately after the peptide was reconstituted. Measurements were on a Jasco J-720 spectropolarimeter (Easton, Md.), equipped with a model CTC-344 circular temperature control system (Neslab Inc., Newington, N.H.), at final protein concentration of 0.15 mg/ml in a cell with 0.1 cm path length. The spectra were recorded at 1 nm intervals over the wavelength range of 190-260 nm at 15° C. Results were expressed as molar ellipticity in units of deg-cm^2-dmol^−1, and the data were analyzed by the Lincomb, convex constraints and neural network algorithms to obtain percentages of different types of secondary structures using Softsec software (Softwood Inc., PA.) (Perczel et al., “Analysis of Circular Dichroism Spectrum of Proteins Using the Convex Constraint Algorithm,” Anal. Biochem. 203:83-93 (1992); Manavalan et al., “Variable Selection Method Improves the Prediction of Protein Secondary Structure from Circular Dichroism,” Anal. Biochem. 167:76-85 (1987); Toumadje et al., “Extending CD Spectra of Proteins to 168nm Improves the Analysis for Secondary Structures,” Anal. Biochem. 200:321-331 (1992); Sreerma et al., “A Self-consistent Method for the Analysis of Protein Secondary Structure from Circular Dichroism,” Anal. Biochem. 209:32-44 (1993); which are hereby incorporated by reference in their entirety). […]

apoE4 [2] = target: T1, apoE4 (Homo sapiens, UniProt P02649, C130R); assay: Toxicity rescue: neutralizing apoE4's effect on Aβ1-42 neurotoxicity, MTT assay in SK-N-SH cells; assay type: cell-based; settings: Aβ1-42 100 μmol/L, apoE4 0.5 μmol/L preincubated with 0.5 μmol/L peptide; two day p<0.05, 6 day p<0.01
T1 construct: made in house; host or cells: primary forebrain astrocytes of GFAP-human apoE4 transgenic mice
Procedure: All experiments were run in triplicate. The results from cell culture neurotoxicity studies were evaluated by one-way analysis of variance, followed by a Dunnett's test as a post hoc analysis.

apoE4 [3] = target: T1, apoE4; assay: Competitive inhibition ELISA: apoE4 binding to immobilized Aβ1-40
Procedure: Lipidated apoE4 100 nM was preincubated with an increasing concentration of Aβ12-28P (0-400 nM) in 10 mM Tris buffer pH 7.4 for three hours at 37° C., and then added to the plate (100 μL/well). […] The color reaction was developed with a 3,3,5,5-tetramethybenzidine substrate (Sigma, St. Louis, Mo.), stopped with 2M sulfuric acid, and optical density (“OD”) was read at 450 nm on a 7520 Microplate Reader (Cambridge Technology, Watertown, Mass.). Non-specific binding was determined using bovine serum albumin and/or omitting the apoE4 in the assay. OD values were converted to percentages with the binding of apoE4 in the absence of inhibitor being considered as 100%. The mean±standard deviation from three independent duplicate experiments was plotted in FIG. 3 and analyzed by a one site competition nonlinear regression fit algorithm using GraphPad Prism v4.0 (GraphPad Software, San Diego, Calif.).

[4] = system: APP^K670N/M671L/PS1^M146L double Tg mice; assay: Aβ deposition in APP/PS1 double transgenic mice, 6E10 and Thioflavin-S histology with stereology; assay type: in vivo; settings: for Aβ load lower compared to vehicle Tg controls: 1 mg i.p. three times per week, four weeks
Procedure: Initial testing of Aβ12-28P toxicity in vivo was performed on five wild type C57BL6 mice which received intraperitoneal (“i.p.”) injections of 1 mg of Aβ12-28P diluted in 0.5 mL of sterile PBS three times per week for four weeks. […] Signs of toxicity included change in body weight, physical appearance, measurable clinical signs, unprovoked behavior and response to external stimuli were not noticed. After one month, the animals were sacrificed and samples were taken from the brain, liver, gut, spleen, kidney and heart, for hematoxylin and eosin staining. […] The first administration of Aβ12-28P was begun at four months of age, at which time the APP^K670N/M671L/PS1^M146L mice already have significant numbers of Aβ lesions (Wengenack et al., “Quantitative Histological Analysis of Amyloid Deposition in Alzheimer's Double Transgenic Mouse Brain,” Neurosci. 101:939-944 (2000); McGowan et al., “Amyloid Phenotype Characterization of Transgenic Mice Overexpressing Both Mutant Amyloid Precursor Protein and Mutant Presenilin 1 Transgenes,” Neurobiol. Dis. 6:231-244 (1999), which are hereby incorporated by reference in their entirety). The treatment was continued for four weeks (1 mg i.p. three times per week). Control age-matched APP^K670N/M671L/PS1^M146L mice received injections with vehicle only. There were six Aβ12-28P treated and six vehicle treated APP^K670N/M671L/PS1^M146L mice in this study.
Animals were sacrificed a week after the last injection with an overdose of sodium pentobarbital (150 mg/kg i.p.) and transcardially perfused with 20 ml of heparinized 0.1M PBS followed by 4% buffered paraformaldehyde. The brain was dehydrated using increasing concentrations of sucrose in 0.1M PBS, pH 7.4 and sectioned using a freezing microtome (Leica SM2400) (Nussloch, Germany). Serial coronal sections (40 μm thick) were collected in 10 series. Each of the series contained a complete set of cross-sections along the rostro-caudal axis of the brain spaced by 400 μm. […] For Aβ immunohistochemistry, endogenous peroxidase activity was quenched in 0.3% H2O2 for 30 min and incubation with mAb 6E10 at 1:1000 dilution was followed by an anti-mouse IgG biotinylated secondary antibody (1:2000) and avidin-horseradish peroxidase complex (Vectastain MOM kit) (Vector Laboratories, Burlingame, Calif.). Sections were developed using 3,3′-diaminobenzidine kit with nickel ammonium sulfate (Vector Laboratories, Burlingame, Calif.).
Aβ deposition were quantified on one randomly selected section series which was stained with 6E10 mAb. Aβ deposits were measured in the brain cortex and in the hippocampus using a random, unbiased sampling scheme.

[5] = CD immediately after reconstitution, 5 mmol/L Tris pH 7.0

T1 sequence (P02649 19-317 C130R): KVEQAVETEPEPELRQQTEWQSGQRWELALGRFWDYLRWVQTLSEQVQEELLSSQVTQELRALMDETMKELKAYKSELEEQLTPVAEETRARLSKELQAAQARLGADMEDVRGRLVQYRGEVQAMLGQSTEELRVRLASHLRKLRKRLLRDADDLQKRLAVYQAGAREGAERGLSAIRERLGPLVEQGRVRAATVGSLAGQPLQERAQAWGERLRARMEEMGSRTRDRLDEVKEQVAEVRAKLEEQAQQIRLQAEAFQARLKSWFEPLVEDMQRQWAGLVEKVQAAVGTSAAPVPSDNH

In the case of `CC(=O)N[C@@H](C(=O)N[C@H](Cc1c[nH]cn1)C(=O)N[C@H](Cc1c[nH]cn1)C(=O)N[C@H](CCC(N)=O)C(=O)N[C@H](CCCCN)C(=O)N[C@H](CC(C)C)C(=O)N1CCC[C@@H]1C(=O)N[C@H](Cc1ccccc1)C(=O)N[C@H](Cc1ccccc1)C(=O)N[C@H](C)C(=O)N[C@H](CCC(=O)O)C(=O)N[C@H](CC(=O)O)C(=O)N[C@@H](C(=O)NCC(=O)N[C@H](CO)C(=O)N[C@H](CC(N)=O)C(=O)N[C@H](CCCCN)C(N)=O)C(C)C)C(C)C` [Aβ12-28P] (Ac-[dV][dH][dH][dQ][dK][dL][dP][dF][dF][dA][dE][dD][dV]G[dS][dN][dK]-NH2), the β-sheet content ([1]; CD at time=0) is reported as 2%, the “random coil, share of the total protein structure” value [1, 5] is reported as 59% and the “∝-helix, share of the total protein structure” value [1, 5] is reported as 39%. The “rescue of cell viability from apoE4-enhanced Aβ1-42 toxicity” value (apoE4 [2]) was “significant rescue of the cell viability; also recorded: could be neutralized”, the IC50 (apoE4 [3]; 100 nM lipidated apoE4 preincubated with 0-400 nM peptide, one-site competition fit) was 36.7 nM and the Ki (apoE4 [3]; read-out: inhibition constant (KI)) was 11.4 nM. For the same compound, the “reduction in the number of medium-size plaques” value ([4]; cortex, >500 μm^2 and <1000 μm^2, p<0.05) was 53.5%, the “reduction in the number of large plaques” value ([4]; cortex, >1000 μm^2, non-significant) was 44% and the “reduction in the density of small plaques” value ([4]; cortex, cross-section area <500 μm^2, p<0.001) was 52.8%. The “Aβ load lower compared to vehicle Tg controls” value ([4]; cortex, p=0.0047) was 63.3%, the “density of fibrillar Aβ plaques on Thioflavin-S staining” value ([4]; four weeks of treatment) was “reduction in the density of Aβ plaques was also seen” and the “reduction in the density of large plaques” value ([4]; hippocampus, p<0.05) was 65.4%. The “reduction in the density of medium-size plaques” value ([4]; hippocampus, p<0.05) was 48.6%, the “reduction in the density of small plaques” value ([4]; hippocampus, p<0.05) was 37.6% and the “Aβ load lower compared to vehicle Tg controls” value ([4]; hippocampus, p=0.0048) was 61.9%. For the same compound, the “reduction in the numerical density of Aβ plaques” value ([4]; hippocampus, p=0.0047) was 46.3%, the “reduction in the numerical density of Aβ plaques” value ([4]; neocortex, p=0.0002) was 60.1% and the “reduction in Aβ load and plaque density versus control Tg animals, in words” value ([4]; one month of administration) was “over two fold; also recorded: significant reduction”.
